Key:
[1] = target: DNMT-1 (Homo sapiens, UniProt P26358); assay: In vitro activity test on DNMT-1; assay type: biochemical; details: for IC50: in vitro activity on DNMT1, Table 1; for In vitro activity (IC50) compared to ZINC15602870: comparison in words
Procedure: AutoDock Vina was used to screen the 72,000 compounds using the ligands in the original protein as the docking template. […] Continuous fine screening was performed with AutoDock Vina to obtain the top 50 compounds which were then analyzed by cluster analysis. Next, the representative compounds with large structural differences were empirically selected. Finally, a total of 12 representative compounds were selected (see supporting document), purchased from Medrige or synthesized by ourselves.
The side chains of compounds 03 and 07 were then introduced onto position R2 of the new parent ring (Table 1). In vitro activity tests were then performed as previously described ([Datta et al., 2009]).

[2] = system: Notch pathway; assay: Expression of Notch pathway-related factors (qPCR) and methylation of the miR-27-3p promoter (BSP-NGS) after iDNMT treatment; assay type: cell-based, human
Procedure: The genomic DNA samples from the clinical specimens, tumor tissues, and cultured cells were extracted and isolated using the DNeasy Blood & Tissue Kit (Cat No. 69504; QIAGEN, Hilden, Germany) and treated with the EpiTect Bisulfite Kit (Cat No. 59104; QIAGEN) according to the manufacturer’s instructions. Next, the polymerase chain reactions (PCRs) were performed using DNA samples and a high-fidelity polymerase, Platinum II Hot-Start PCR Master Mix (Cat No. 14000012; Thermo Fisher Scientific), to amplify the selected promoter region (chr19: 13836440-13838517, negative chain [-], the selected promoter region of has-pre-miR-27) of miR-27 with CpG islands (chr19: 13,835,599-13,835,325, negative chain [-]). […] Following PCR experiments, the products were directly sequenced by using Ion Torrent PGM, and the methylation rates were calculated as previously described ([Ma et al., 2020]; [Wang et al., 2021b]; [He et al., 2021]).
For quantitative PCR (qPCR) analysis, the total RNA was extracted from the clinical specimens, LSCC cells, or subcutaneous tumor tissues as described by Ma et al. (2020) before reverse transcription to generate cDNA. The expression of DNMT1, Notch-related factors, and has-pre-miR-27 was examined by real-time quantitative fluorescence PCR (RT-PCR/qPCR) ([Ma et al., 2016]; [Yang et al., 2020]; [Du et al., 2021]) with β-actin as the loading control. […]

[3] = system: H226 cells; assay: Subcellular fractionation and Western blotting of H226 cells; assay type: cell-based, human; details: immunoblotting
Procedure: The H226 cells were cultured in Dulbecco’s modified Eagle’s medium (DMEM) with 10% (v/v) fetal bovine serum (FBS). The cells were transfected with plasmids or treated with the appropriate concentration of iDNMT [low dose (0.1 μmol/L), medium dose (1 μmol/L), and high dose (10 μmol/L)]. The H226 cells were then harvested for subcellular fractionation assays as previously described. The H226 cells were split into the nuclear subfraction or the cytoplasmic subfraction ([Lu et al., 2013]; [Yang et al., 2013]; [Feng et al., 2018b]). NICD, PSEN-1, and DNMT1 expression levels were examined in the subfractions by immunoblotting using antibodies from Santa Cruz (United States) or Abcam (United Kingdom). We chose β-actin and lamin A as the cytoplasmic and nuclear loading controls or indicators, respectively ([Lu et al., 2013]; [Yang et al., 2013]; [Feng et al., 2018b]).
To further confirm the specificity of iDNMT on the Notch pathway, we analyzed the cytoplasm–nuclear subfraction using immunoblotting. […] The methylation rates of the miR-27-3p′s promoter region and expression level of DNMT-1 or miR-27-3p in cell samples of Figure 5B are shown in Supplementary Figure S1. Therefore, iDNMT represses PSEN-1 expression to inhibit cleavage of Notch, thus inhibiting NICD accumulation in H226 cells.

[4] = system: H226 LSCC cells; assay: Subcutaneous H226 LSCC tumors in nude mice, oral iDNMT with or without RFA; assay type: in vivo
Procedure: The antitumor efficacy of iDNMT, RFA, and iDNMT1 + RFA on LSCC tissues was examined in nude mice. Nude mice aged 5 weeks were obtained from the Si-Bei-Fu Corporation (Beijing, China), and they were fed under specific pathogen-free conditions. The H226 cells (approximately 5 × 10^6 cells/animal), which were transfected with plasmids, were subcutaneously injected into nude mice to generate tumor tissues ([Feng et al., 2019]; [Sun et al., 2019]). The dimensions of these tumors were measured using a Vernier caliper every 7 days. Tumor volumes were calculated according to the following formula: tumoral width × tumoral width × tumoral length/2 ([Feng et al., 2019]; [Sun et al., 2019]). For RFA treatment or RFA + iDNMT treatment, RFA of the LSCC subcutaneous tumors was performed using a thyroid-ablation needle (Cat No.: UniBlate 700-103587 17G, RITA Company, Crystal Lake, IL, United States) when the tumoral volume reached ∼500 mm^3. The conditions for RFA were as follows: 2 min RFA-duration with a series of different temperatures, 65, 60, or 55°C. In addition, iDNMT was administered orally at 10, 5, 2, or 1 mg/kg ([Xie et al., 2018a]; [Xie et al., 2018b]; [Zhou et al., 2021]). The formulation of iDNMT and the oral administration were performed as previously described ([Zou et al., 2021a]; [Zou et al., 2021b]; [Wang et al., 2021c]; [Jie et al., 2021]). Subcutaneous tumors were separated from the animals, and the weights of these tumors were measured using a precision-balance.

DNMT-1, sequence (P26358 whole entry): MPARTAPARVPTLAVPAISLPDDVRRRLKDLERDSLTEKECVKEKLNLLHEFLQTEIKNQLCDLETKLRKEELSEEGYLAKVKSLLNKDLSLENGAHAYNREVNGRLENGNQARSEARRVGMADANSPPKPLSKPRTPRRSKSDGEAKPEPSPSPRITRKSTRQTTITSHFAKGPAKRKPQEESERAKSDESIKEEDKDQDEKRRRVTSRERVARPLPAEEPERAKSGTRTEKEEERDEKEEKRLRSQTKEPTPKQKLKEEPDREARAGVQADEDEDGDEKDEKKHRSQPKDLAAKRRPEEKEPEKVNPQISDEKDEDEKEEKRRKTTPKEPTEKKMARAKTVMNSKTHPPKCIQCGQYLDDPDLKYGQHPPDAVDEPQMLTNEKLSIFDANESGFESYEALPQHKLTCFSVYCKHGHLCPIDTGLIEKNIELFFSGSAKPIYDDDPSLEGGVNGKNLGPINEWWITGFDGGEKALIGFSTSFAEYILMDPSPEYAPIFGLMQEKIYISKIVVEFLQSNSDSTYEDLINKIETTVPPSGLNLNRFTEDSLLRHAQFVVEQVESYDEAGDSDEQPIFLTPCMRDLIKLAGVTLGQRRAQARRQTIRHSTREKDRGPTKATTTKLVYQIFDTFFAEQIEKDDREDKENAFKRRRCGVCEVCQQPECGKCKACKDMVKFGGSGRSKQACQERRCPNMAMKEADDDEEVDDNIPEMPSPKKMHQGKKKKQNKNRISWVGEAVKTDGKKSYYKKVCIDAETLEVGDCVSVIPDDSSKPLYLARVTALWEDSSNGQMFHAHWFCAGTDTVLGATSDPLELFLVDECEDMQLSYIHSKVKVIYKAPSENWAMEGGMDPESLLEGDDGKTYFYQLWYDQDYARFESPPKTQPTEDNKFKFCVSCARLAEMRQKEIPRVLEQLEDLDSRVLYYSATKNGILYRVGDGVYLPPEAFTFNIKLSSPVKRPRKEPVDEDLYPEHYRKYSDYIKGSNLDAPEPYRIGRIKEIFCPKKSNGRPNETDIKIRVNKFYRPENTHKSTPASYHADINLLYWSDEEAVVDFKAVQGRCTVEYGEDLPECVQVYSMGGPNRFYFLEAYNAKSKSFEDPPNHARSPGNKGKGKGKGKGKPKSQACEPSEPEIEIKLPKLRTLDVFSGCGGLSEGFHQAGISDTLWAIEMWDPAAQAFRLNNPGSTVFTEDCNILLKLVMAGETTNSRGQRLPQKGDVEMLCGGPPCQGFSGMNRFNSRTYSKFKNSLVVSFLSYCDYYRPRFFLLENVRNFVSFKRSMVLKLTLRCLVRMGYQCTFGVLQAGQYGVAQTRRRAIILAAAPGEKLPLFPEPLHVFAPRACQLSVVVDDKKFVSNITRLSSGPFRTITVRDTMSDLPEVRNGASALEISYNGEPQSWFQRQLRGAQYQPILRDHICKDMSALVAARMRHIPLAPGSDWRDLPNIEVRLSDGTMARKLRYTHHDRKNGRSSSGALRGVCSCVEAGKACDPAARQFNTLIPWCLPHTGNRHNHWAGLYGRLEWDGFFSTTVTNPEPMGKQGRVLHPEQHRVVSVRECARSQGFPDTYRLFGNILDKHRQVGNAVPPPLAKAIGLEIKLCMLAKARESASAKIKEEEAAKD

Compound COc1cc(C(=O)Nc2ccc(C(C)=O)cc2)ccc1C [Compound 01, N-(4-acetylphenyl)-3-methoxy-4-methylbenzamide] has an IC50 [1] of 20 µM.

In the case of COc1cc(C(=O)Nc2ccc(C(=O)N3CCN(C(C)C)CC3)cc2)ccc1C [Compound 02], the “In vitro activity (IC50) compared to ZINC15602870” value [1] is reported as “improved IC50 values” and the IC50 [1] is reported as 15 µM.

With COc1cc(C(=O)Nc2ccc(C(=O)N3CCN(C(C)=O)CC3)cc2)ccc1C [Compound 03] the “In vitro activity (IC50) compared to ZINC15602870” value [1] was “improved IC50 values” and the IC50 [1] was 7 µM.

For COc1cc(C(=O)Nc2ccc(S(=O)(=O)NC(=O)c3ccccc3)cc2)ccc1C [Compound 04], the “In vitro activity (IC50) compared to ZINC15602870” value [1] was “improved IC50 values” and the IC50 [1] was 13 µM.

For COC(=O)CCSc1n[nH]c(NC(=O)c2ccc(C)c(OC)c2)n1 [Compound 05], the IC50 [1] was 18 µM.

In the case of COCCCSc1n[nH]c(NC(=O)c2ccc(C)c(OC)c2)n1 [Compound 06], the IC50 [1] is reported as 38 µM.

For CCC(Sc1n[nH]c(NC(=O)c2ccc(C)c(OC)c2)n1)C(=O)OC (stereo not shown) [Compound 07], the IC50 [1] was 9 µM.

Compound COc1cc(C(=O)Nc2nc(SCC3OCCO3)n[nH]2)ccc1C [Compound 08] has an IC50 [1] of 30 µM.

CCOC(=O)CCCSc1n[nH]c(NC(=O)c2ccc(C)c(OC)c2)n1 [Compound 09] gave an IC50 [1] of 22 µM.

For COc1ccc(C(=O)Nc2ccc(C(=O)N3CCN(C(C)=O)CC3)cc2)cc1OC [Compound 10], the IC50 [1] was 4.71 µM, the “methylation of the miR-27-3p promoter region” value ([2]; Figure 5A) was “decreased methylation of the miR-27-3p promoter region” and the “expression of PSEN-1 or downstream factors of the Notch pathway” value ([2]; N-cadherin, vimentin, survivin, cIAP-1, cIAP-2, Figure 5A) was “inhibit the expression of PSEN-1 or downstream factors of the Notch pathway”. For the same compound, the DNMT-1 expression ([3]; Figure 5B) was “no effects on DNMT-1 expression”, the PSEN-1 expression ([3]; Figure 5B) was “inhibited PSEN-1 expression” and the “accumulation of NICD in the nuclear subfraction” value ([3]; iDNMT low 0.1, medium 1, high 10 μmol/L, dose-dependent) was “reduced accumulation of NICD in the nuclear subfraction”. The LSCC tumor volumes ([4]; 2 mg/kg iDNMT oral combined with 2 min RFA at 55°C) was “significantly induced shrinkage of LSCC tumor volumes”, the “EMT process of LSCC cells in subcutaneous tissues” value ([4]; iDNMT with RFA 55°C for 2 min) was “inhibited the EMT process” and the “miR-27-3p expression in tumor tissues” value ([4]; oral, 2 mg/kg, leads to inhibition of the Notch pathway) was “significantly upregulated miR-27-3p expression”. The “subcutaneous growth of H226 cells (antitumor activity)” value ([4]; oral, iDNMT alone, 2 mg/kg) was “weak antitumor activity”, the “subcutaneous growth of H226 cells” value ([4]; oral, iDNMT alone, 5 mg/kg) was “most significant inhibition” and the “subcutaneous growth of H226 cells” value ([4]; oral, iDNMT alone, 10 mg/kg) was “most significant inhibition”.

CCC(Sc1n[nH]c(NC(=O)c2ccc(OC)c(OC)c2)n1)C(=O)OC (stereo not shown) [Compound 11] gave an IC50 [1] of 6 µM.

— paper PMC8983860, “A Novel Small Molecular Inhibitor of DNMT1 Enhances the Antitumor Effect of Radiofrequency Ablation in Lung Squamous Cell Carcinoma Cells” (Frontiers in Pharmacology, 2022)
